Literature values in US20260355131A1, “SPRAY-DRIED COMPOSITIONS COMPRISING ADRENERGIC RECEPTOR MODULATORS” (OREXO AB, priority 2023, published 2026).

How the values were obtained:
[1] = in solution
[2] = free acid/base compound

In the case of CNC[C@H](O)c1ccc(O)c(O)c1 [epinephrine], the “pH below which epinephrine is stable” value [1] is listed as “below 4”, the “optimum pH balancing racemization and oxidation” value ([1]; Connors et al) is listed as 3.0-3.8 and the aqueous solubility [2] is listed as “more limited aqueous solubility”.
